# pIC50: −log10 of the molar value.
# Biological target: IDO1 (Homo sapiens, UniProt P14902)
# Assay: IDO1 Cellular Assay in HeLa Cells Stimulated with IFNγ
# Assay type: cell-based
# Conditions: read-out: HeLa Cell Potency, IC50
# Sequence of IDO1 (P14902 whole entry): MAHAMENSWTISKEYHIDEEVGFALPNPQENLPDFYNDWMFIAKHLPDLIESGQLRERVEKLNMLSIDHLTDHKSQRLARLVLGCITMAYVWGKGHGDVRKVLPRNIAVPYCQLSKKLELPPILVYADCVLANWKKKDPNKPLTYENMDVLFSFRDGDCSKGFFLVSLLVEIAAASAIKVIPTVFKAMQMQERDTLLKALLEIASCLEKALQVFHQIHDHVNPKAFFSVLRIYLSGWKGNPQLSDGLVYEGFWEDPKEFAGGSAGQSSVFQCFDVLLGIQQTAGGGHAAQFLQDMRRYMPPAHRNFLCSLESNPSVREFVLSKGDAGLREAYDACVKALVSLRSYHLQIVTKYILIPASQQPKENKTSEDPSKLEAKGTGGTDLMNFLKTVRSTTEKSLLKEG
row,Structure (SMILES),pIC50
1,"Cc1cccc(N2CCN(C(=O)Cn3nc(C(=O)N4CCC5(CC4)CNC(=O)N5C)c4c3C[C@H]3C[C@@H]43)CC2)c1C [Example 227, 8-[(3bR,4aR)-1-{2-[4-(2,3-dimethylphenyl)piperazin-1-yl]-2-oxoethyl}-3b,4,4a,5-tetrahydro-1H-cyclopropa[3,4]cyclopenta[1,2-c]pyrazole-3-carbonyl]-1-methyl-1,3,8-triazaspiro[4.5]decan-2-one]",8.66
2,"Cc1cccc(N2CCN(C(=O)Cn3nc(C(=O)N4CCC(N5CCCC5=O)CC4)c4c3C[C@H]3C[C@@H]43)CC2)c1C [Example 228, 1-{2-[(3bR,4aR)-1-{2-[4-(2,3-dimethylphenyl)piperazin-1-yl]-2-oxoethyl}-3b,4,4a,5-tetrahydro-1H-cyclopropa[3,4]cyclopenta[1,2-c]pyrazole-3-carbonyl]piperidin-4-yl}pyrrolidin-2-one]",9.00
3,"Cc1cccc(N2CCN(C(=O)Cn3nc(C(=O)N4CC[C@@H](O)C[C@H]4C)c4c3C[C@H]3C[C@@H]43)CC2)c1C [Example 231, 1-[4-(2,3-dimethylphenyl)piperazin-1-yl]-2-{(3bR,4aR)-3-[(2R,4R)-4-hydroxy-2-methylpiperidine-1-carbonyl]-3b,4,4a,5-tetrahydro-1H-cyclopropa[3,4]cyclopenta[1,2-c]pyrazol-1-yl}ethan-1-one]",8.36
4,"Cc1cccc(N2CCN(C(=O)Cn3nc(C(=O)N4CC5(CNC5)C4)c4c3C[C@H]3C[C@@H]43)CC2)c1C [Example 232, 2-[(3bR,4aR)-3-(2,6-diazaspiro[3.3]heptane-2-carbonyl)-3b,4,4a,5-tetrahydro-1H-cyclopropa[3,4]cyclopenta[1,2-c]pyrazol-1-yl]-1-[4-(2,3-dimethylphenyl)piperazin-1-yl]ethan-1-one]",7.21
5,"Cc1cccc(N2CCN(C(=O)Cn3nc(C(=O)N4CCC(C(F)F)C4)c4c3C[C@H]3C[C@@H]43)CC2)c1C (stereo partly drawn) [Example 233, 2-{(3bR,4aR)-3-[3-(difluoromethyl)pyrrolidine-1-carbonyl]-3b,4,4a,5-tetrahydro-1H-cyclopropa[3,4]cyclopenta[1,2-c]pyrazol-1-yl}-1-[4-(2,3-dimethylphenyl)piperazin-1-yl]ethan-1-one]",8.63
6,"Cc1cccc(N2CCN(C(=O)Cn3nc(C(=O)N4CCC5NCC5C4)c4c3C[C@H]3C[C@@H]43)CC2)c1C (stereo partly drawn) [Example 236, 2-[(3bR,4aR)-3-(3,7-diazaspiro[4.2.0]octane-3-carbonyl)-3b,4,4a,5-tetrahydro-1H-cyclopropa[3,4]cyclopenta[1,2-c]pyrazol-1-yl]-1-[4-(2,3-dimethylphenyl)piperazin-1-yl]ethan-1-one]",7.26
7,"Cc1cccc(N2CCN(C(=O)Cn3nc(C(=O)N4CC[C@H]5[C@@H](C4)NC(=O)N5C)c4c3C[C@H]3C[C@@H]43)CC2)c1C [Example 237, (3aR,7aS)-5-[(3bR,4aR)-1-{2-[4-(2,3-dimethylphenyl)piperazin-1-yl]-2-oxoethyl}-3b,4,4a,5-tetrahydro-1H-cyclopropa[3,4]cyclopenta[1,2-c]pyrazole-3-carbonyl]-1-methyloctahydro-2H-imidazo[4,5-c]pyridin-2-one]",7.10
8,"Cc1cccc(N2CCN(C(=O)Cn3nc(C(=O)N4CCC5NC(=O)OCC5C4)c4c3C[C@H]3C[C@@H]43)CC2)c1C (stereo partly drawn) [Example 239, 6-[(3bR,4aR)-1-{2-[4-(2,3-dimethylphenyl)piperazin-1-yl]-2-oxoethyl}-3b,4,4a,5-tetahydro-1H-cyclopropa[3,4]cyclopenta[1,2-c]pyrazole-3-carbonyl]octahydro-2H-pyrido[4,3-d][1,3]oxazin-2-one]",8.19
9,"Cc1cccc(N2CCN(C(=O)Cn3nc(C(=O)N4CCC5NC(=O)OCC5C4)c4c3C[C@H]3C[C@@H]43)CC2)c1C (stereo partly drawn) [Example 240, 6-[(3bR,4aR)-1-{2-[4-(2,3-dimethylphenyl)piperazin-1-yl]-2-oxoethyl}-3b,4,4a,5-tetrahydro-1H-cyclopropa[3,4]cyclopenta[1,2-c]pyrazole-3-carbonyl]octahydro-2H-pyrido[4,3-d][1,3]oxazin-2-one]",7.88
10,"CN[C@H]1CCCN(C(=O)c2nn(CC(=O)N3CCN(c4cccc(C)c4C)CC3)c3c2[C@@H]2C[C@@H]2C3)C1 [Example 241, 1-[4-(2,3-dimethylphenyl)piperazin-1-yl]-2-{(3bR,4aR)-3-[(3S)-3-(methylamino)piperidine-1-carbonyl]-3b,4,4a,5-tetrahydro-1H-cyclopropa[3,4]cyclopenta[1,2-c]pyrazol-1-yl}ethan-1-one]",6.79
11,"Cc1cccc(N2CCN(C(=O)Cn3nc(C(=O)N4CCC(NC(=O)NN)CC4)c4c3C[C@H]3C[C@@H]43)CC2)c1C [Example 242, N-{1-[(3bR,4aR)-1-{2-[4-(2,3-dimethylphenyl)piperazin-1-yl]-2-oxoethyl}-3b,4,4a,5-tetrahydro-1H-cyclopropa[3,4]cyclopenta[1,2-c]pyrazole-3-carbonyl]piperidin-4-yl}hydrazinecarboxamide]",7.00
12,"Cc1cccc(N2CCN(C(=O)Cn3nc(C(=O)N4CC5(CCN(C)C5)C4)c4c3C[C@H]3C[C@@H]43)CC2)c1C [Example 243, 1-[4-(2,3-dimethylphenyl)piperazin-1-yl]-2-[(3bR,4aR)-3-(6-methyl-2,6-diazaspiro[3.4]octane-2-carbonyl)-3b,4,4a,5-tetrahydro-1H-cyclopropa[3,4]cyclopenta[1,2-c]pyrazol-1-yl]ethan-1-one]",6.80
13,"Cc1cccc(N2CCN(C(=O)Cn3nc(C(=O)N4CCC5(CC4)CNC(=O)CO5)c4c3C[C@H]3C[C@@H]43)CC2)c1C [Example 244, 9-[(3bR,4aR)-1-{2-[4-(2,3-dimethylphenyl)piperazin-1-yl]-2-oxoethyl}-3b,4,4a,5-tetrahydro-1H-cyclopropa[3,4]cyclopenta[1,2-c]pyrazole-3-carbonyl]-1-oxa-4,9-diazaspiro[5.5]undecan-3-one]",8.32
14,"Cc1cccc(N2CCN(C(=O)Cn3nc(C(=O)N4CCC(C)(O)CC4C)c4c3C[C@H]3C[C@@H]43)CC2)c1C (stereo partly drawn) [Example 245, 1-[4-(2,3-dimethylphenyl)piperazin-1-yl]-2-[(3bR,4aR)-3-(4-hydroxy-2,4-dimethylpiperidine-1-carbonyl)-3b,4,4a,5-tetrahydro-1H-cyclopropa[3,4]cyclopenta[1,2-c]pyrazol-1-yl]ethan-1-one]",8.52
15,"Cc1cccc(N2CCN(C(=O)Cn3nc(C(=O)N4CCN5CCCC[C@@H]5C4)c4c3C[C@H]3C[C@@H]43)CC2)c1C [Example 246, 1-[4-(2,3-dimethylphenyl)piperazin-1-yl]-2-{(3bR,4aR)-3-[(9aR)-octahydro-2H-pyrido[1,2-a]pyrazine-2-carbonyl]-3b,4,4a,5-tetrahydro-1H-cyclopropa[3,4]cyclopenta[1,2-c]pyrazol-1-yl}ethan-1-one]",8.49
16,"Cc1cccc(N2CCN(C(=O)Cn3nc(C(=O)N4CCC(C)(CO)CC4)c4c3C[C@H]3C[C@@H]43)CC2)c1C [Example 248, 1-[4-(2,3-dimethylphenyl)piperazin-1-yl]-2-{(3aR,4aR)-3-[4-(hydroxymethyl)-4-methylpiperidine-1-carbonyl]-3b,4,4a,5-tetrahydro-1H-cyclopropa[3,4]cyclopenta[1,2-c]pyrazol-1-yl}ethan-1-one]",9.15

# — US12264134B2 (Merck Sharp & Dohme LLC, priority 2018, dated 2025)
